Assays:
AhR = AhR (Homo sapiens (Human), UniProt P35869); assay: AhR antagonism in U937 cells (Promega P450-Glo assay); assay type: cell-based; conditions: inhibition of agonist (KYNA) response, CYP1A1 activity readout (Luciferin-CEE), 24 hrs, arithmetic mean of pIC50
Protocol: Examples were tested in selected biological assays two or more times. Data are reported as the arithmetic mean of the pIC50 (−log10IC50) values, where IC50 is defined as the concentration of compound producing a 50% inhibition of the agonist (KYNA) response.
In Vitro Assay 1: AhR Antagonism in U937 Cells (Promega P450-Glo™ Assay)
AhR antagonism was assessed in U937 cells (myeloid lineage cell line derived from a human histiocytic lymphoma).). Ligand binds the AhR in the cytoplasm, and the AhR-ligand complex translocates to the nucleus and forms a heterodimer with AhR nuclear translocator (Arnt). This complex binds the xenobiotic response element (XRE) in the 5′ upstream region of the CYP1A1 promoter, enhancing CYP1A1 expression. CYP1A1 activity is subsequently determined by assessing the conversion of Luciferin-CEE to luciferin, which in turn reacts with luciferase to produce light. The amount of light produced is directly proportional to cytochrome P450 activity. U937 cells in Ultraculture serum free media (Lonza) were plated at 100,000 cells per well in a round bottom 96 well tissue culture plate. Seven concentrations of test compound (final [DMSO] 1%) were added and incubated for 10 minutes before the addition of […] KYNA. The plates were then placed in an incubator at 37° C., >85% humidity, 5% CO2 for 24 hrs. After aspiration of the supernatant the CYP1A1 substrate Luciferin-CEE ([Final] 83 μM) was added and incubated for 3 hrs before the reaction was stopped by adding luciferin detection reagent and luminescence was read after 20 minutes.

CYP1A1 = CYP1A1 (Homo sapiens (Human), UniProt P04798); assay: CYP1A1 inhibition assay (Promega P450-Glo, Cypex bactosomes); assay type: biochemical; conditions: direct CYP1A1 inhibition, Luciferin-CEE 30 μM, NADPH, 37° C., arithmetic mean of pIC50
Chain of CYP1A1 (P04798 whole entry): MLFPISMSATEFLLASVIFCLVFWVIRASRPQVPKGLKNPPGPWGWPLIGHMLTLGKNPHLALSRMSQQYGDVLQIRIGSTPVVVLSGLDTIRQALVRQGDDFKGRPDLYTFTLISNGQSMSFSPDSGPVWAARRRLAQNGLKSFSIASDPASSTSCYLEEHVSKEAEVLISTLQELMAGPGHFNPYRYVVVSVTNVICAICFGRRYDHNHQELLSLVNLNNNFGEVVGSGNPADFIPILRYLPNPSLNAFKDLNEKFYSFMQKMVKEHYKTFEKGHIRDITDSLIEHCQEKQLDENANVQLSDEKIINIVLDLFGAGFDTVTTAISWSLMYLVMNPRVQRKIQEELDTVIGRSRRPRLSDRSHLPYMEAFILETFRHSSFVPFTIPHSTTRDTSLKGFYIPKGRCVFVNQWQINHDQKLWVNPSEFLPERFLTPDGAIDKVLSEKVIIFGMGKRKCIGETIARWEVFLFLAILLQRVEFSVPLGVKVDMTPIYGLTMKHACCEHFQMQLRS
Protocol: In Vitro Assay 22: […] Inhibition Assay
The direct CYP1A1 inhibitory activity of test compounds was also assessed using the Promega P450-Glo™ assay system. Seven concentrations of test compound were added to a ½ area white 96 well plate. Cypex […]. bactosomes ([final] 0.5 pmol) and CYPA substrate Luciferin-CEE ([final] 30 μM) were prepared in 0.1M potassium phosphate buffer and incubated with test compounds at 37° C. for 5 minutes. 0.2m NADPH was then added to the plates and incubated at 37° C., for 10 minutes. The reaction was stopped by adding luciferin detection reagent and luminescence was read after 20 minutes.

Chain of AhR (P35869 11-848): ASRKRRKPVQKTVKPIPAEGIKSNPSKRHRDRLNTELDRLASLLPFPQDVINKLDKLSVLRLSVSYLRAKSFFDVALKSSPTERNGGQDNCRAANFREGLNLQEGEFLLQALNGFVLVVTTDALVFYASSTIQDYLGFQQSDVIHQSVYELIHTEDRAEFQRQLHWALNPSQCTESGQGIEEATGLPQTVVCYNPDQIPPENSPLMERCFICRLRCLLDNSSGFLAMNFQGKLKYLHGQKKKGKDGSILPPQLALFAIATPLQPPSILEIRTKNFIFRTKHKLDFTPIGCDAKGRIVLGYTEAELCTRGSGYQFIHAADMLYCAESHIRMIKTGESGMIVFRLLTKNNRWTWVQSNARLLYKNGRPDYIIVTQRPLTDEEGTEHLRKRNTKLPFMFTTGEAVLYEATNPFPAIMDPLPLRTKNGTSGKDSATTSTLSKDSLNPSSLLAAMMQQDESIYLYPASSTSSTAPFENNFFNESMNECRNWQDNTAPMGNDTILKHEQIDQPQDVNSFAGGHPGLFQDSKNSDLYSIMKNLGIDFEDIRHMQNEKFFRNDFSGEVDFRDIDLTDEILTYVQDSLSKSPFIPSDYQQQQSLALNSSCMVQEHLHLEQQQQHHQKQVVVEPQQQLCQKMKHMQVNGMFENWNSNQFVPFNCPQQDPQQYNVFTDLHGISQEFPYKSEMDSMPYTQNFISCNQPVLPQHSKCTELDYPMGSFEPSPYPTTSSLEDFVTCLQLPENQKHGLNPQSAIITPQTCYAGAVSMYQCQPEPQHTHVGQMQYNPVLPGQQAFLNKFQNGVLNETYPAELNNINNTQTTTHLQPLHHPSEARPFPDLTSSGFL

SMILES	IC50 (AhR) [nM]	cyp1A1 pIC50 (CYP1A1)
CNC(=O)N1CCc2c(nc(-c3cncc(F)c3)nc2NCCc2c[nH]c3ccccc23)C1 [Example 14, 4-((2-(1H-indol-3-yl)ethyl)amino)-2-(5-fluoropyridin-3-yl)-N-methyl-5,8-dihydropyrido[3,4-d]pyrimidine-7(6H)-carboxamide]	1.26	6.10
Clc1cncc(-c2nc3c(c(NCCc4c[nH]c5ccccc45)n2)CNCC3)c1 [Example 27, N-(2-(1H-indol-3-yl)ethyl)-2-(5-chloropyridin-3-yl)-5,6,7,8-tetrahydropyrido[4,3-d]pyrimidin-4-amine]	4.47	7.2
CCN1CCc2nc(-c3cncc(F)c3)nc(NCCc3c[nH]c4ccccc34)c2CC1 [Example 17b, N-(2-(1H-indol-3-yl)ethyl)-7-ethyl-2-(5-fluoropyridin-3-yl)-6,7,8,9-tetrahydro-5H-pyrimido[4,5-d]azepin-4-amine]	15.8	6.10
N#Cc1cncc(-c2nc3c(c(NCCc4c[nH]c5ccccc45)n2)CCNC3)c1 [Example 23, 5-(4-((2-(1H-indol-3-yl)ethyl)amino)-5,6,7,8-tetrahydropyrido[3,4-d]pyrimidin-2-yl)nicotinonitrile]	10	6.70
c1cncc(-c2nc3c(c(NCCc4c[nH]c5ccccc45)n2)CNCC3)c1 [Example 7, N-(2-(1H-indol-3-yl)ethyl)-2-(pyridin-3-yl)-5,6,7,8-tetrahydropyrido [4,3-d]pyrimidin-4-amine]	10	6.70
CN(C)C(=O)N1CCc2c(nc(-c3cncc(F)c3)nc2NCCc2c[nH]c3ccccc23)C1 [Example 13, 4-((2-(1H-indol-3-yl)ethyl)amino)-2-(5-fluoropyridin-3-yl)-N,N-dimethyl-5,8-dihydropyrido[3,4-d]pyrimidine-7(6H)-carboxamide]	3.16	5.70
CS(=O)(=O)N1CCc2c(nc(-c3cncc(F)c3)nc2NCCc2c[nH]c3ccccc23)C1 [Example 2, N-(2-(1H-indol-3-yl)ethyl)-2-(5-fluoropyridin-3-yl)-7-(methylsulfonyl)-5,6,7,8-tetrahydropyrido [3,4-d]pyrimidin-4-amine]	1.26	6.20
CC(C)N1CCc2c(nc(-c3cncc(F)c3)nc2NCCc2c[nH]c3ccccc23)C1 [Example 5, N-(2-(1H-indol-3-yl)ethyl)-2-(5-fluoropyridin-3-yl)-7-isopropyl-5,6,7,8-tetrahydropyrido[3,4-d]pyrimidin-4-amine]	10	6.40
CS(=O)(=O)N1Cc2nc(-c3cncc(F)c3)nc(NCCc3c[nH]c4ccccc34)c2C1 [Example 25, N-(2-(1H-indol-3-yl)ethyl)-2-(5-fluoropyridin-3-yl)-6-(methylsulfonyl)-6,7-dihydro-5H-pyrrolo[3,4-d]pyrimidin-4-amine]	5.01	6.20
Fc1cncc(-c2nc3c(c(NCCc4c[nH]c5cc(F)ccc45)n2)CCNC3)c1 [Example 29, N-(2-(6-fluoro-1H-indol-3-yl)ethyl)-2-(5-fluoropyridin-3-yl)-5,6,7,8-tetrahydropyrido[3,4-d]pyrimidin-4-amine]	7.94	6.7
Cn1nccc1C(=O)N1CCc2c(nc(-c3cncc(F)c3)nc2NCCc2c[nH]c3ccccc23)C1 [Example 15, (4-((2-(1H-indol-3-yl)ethyl)amino)-2-(5-fluoropyridin-3-yl)-5,8-dihydropyrido[3,4-d]pyrimidin-7(6H)-yl)(1-methyl-1H-pyrazol-5-yl)methanone]	2	6.00
Fc1cncc(-c2nc3c(c(NCCc4c[nH]c5ccc(F)cc45)n2)CCNC3)c1 [Example 30, N-(2-(5-fluoro-1H-indol-3-yl)ethyl)-2-(5-fluoropyridin-3-yl)-5,6,7,8-tetrahydropyrido [3,4-d]pyrimidin-4-amine]	26.3	6.5
Fc1cncc(-c2nc3c(c(NCCc4c[nH]c5ccc(F)cc45)n2)CNCC3)c1 [Example 32, N-(2-(5-fluoro-1H-indol-3-yl)ethyl)-2-(5-fluoropyridin-3-yl)-5,6,7,8-tetrahydropyrido[4,3-d]pyrimidin-4-amine]	6.03	7.1
Fc1cncc(-c2nc3c(c(NCCc4nc5ccccc5[nH]4)n2)CCNC3)c1 [Example 19, N-(2-(1H-benzo[d]imidazol-2-yl)ethyl)-2-(5-fluoropyridin-3-yl)-5,6,7,8-tetrahydropyrido[3,4-d]pyrimidin-4-amine]	3160	5.10
CC1(C)c2nc(-c3cncc(F)c3)nc(NCCc3c[nH]c4ccccc34)c2CCN1Cc1ccccc1 [Example 18a, N-(2-(1H-indol-3-yl)ethyl)-7-benzyl-2-(5-fluoropyridin-3-yl)-8,8-dimethyl-5,6,7,8-tetrahydropyrido[3,4-d]pyrimidin-4-amine]	5.01	6.20
Fc1cncc(-c2nc3c(c(OCCc4c[nH]c5ccccc45)n2)CCNC3)c1 [Example 11, 4-(2-(1H-indol-3-yl)ethoxy)-2-(5-fluoropyridin-3-yl)-5,6,7,8-tetrahydropyrido[3,4-d]pyrimidine]	3.16	6.40
c1cncc(-c2nc3c(c(NCCc4c[nH]c5ccccc45)n2)CNC3)c1 [Example 10, N-(2-(1H-indol-3-yl)ethyl)-2-(pyridin-3-yl)-6,7-dihydro-5H-pyrrolo[3,4-d]pyrimidin-4-amine]	12.6	6.80
c1cncc(-c2nc3c(c(NCCc4c[nH]c5ccccc45)n2)CCNC3)c1 [Example 9, N-(2-(1H-indol-3-yl)ethyl)-2-(pyridin-3-yl)-5,6,7,8-tetrahydro pyrido[3,4-d]pyrimidin-4-amine]	20	6.60
CN1CCc2c(nc(-c3cncc(F)c3)nc2NCCc2c[nH]c3ccccc23)C1 [Example 6, N-(2-(1H-indol-3-yl)ethyl)-2-(5-fluoropyridin-3-yl)-7-methyl-5,6,7,8-tetrahydropyrido[3,4-d]pyrimidin-4-amine]	5.01	6.50
Fc1cncc(-c2nc3c(c(NCCc4c[nH]c5cc(F)ccc45)n2)CNCC3)c1 [Example 31, N-(2-(6-fluoro-1H-indol-3-yl)ethyl)-2-(5-fluoropyridin-3-yl)-5,6,7,8-tetrahydropyrido[4,3-d]pyrimidin-4-amine]	5.13	7.2
